What was measured:
Assay in all cases: relative viability (nuclei count vs DMSO), 5 days (fraction); higher = more cells survive
Idelalisib + Lapatinib = compound: CC[C@H](Nc1ncnc2[nH]cnc12)c1nc2cccc(F)c2c(=O)n1-c1ccccc1 [Idelalisib] + CS(=O)(=O)CCNCc1ccc(-c2ccc3ncnc(Nc4ccc(OCc5cccc(F)c5)c(Cl)c4)c3c2)o1 [Lapatinib] (partner 2 µM)
How it was run: (§1)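 Dosing by pin tool came one day after lung cancer cell lines were seeded in 1536-well plates, using either one drug or a fixed anchor-drug dose plus five library-drug doses (not always all listed) in √10 steps. After 5 days, nuclei were counted on 4× images. Relative viability is treated-well nuclei count divided by vehicle-well nuclei count, and values are medians of duplicate plates.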

Idelalisib + AZD7762 = compound: CC[C@H](Nc1ncnc2[nH]cnc12)c1nc2cccc(F)c2c(=O)n1-c1ccccc1 [Idelalisib] + NC(=O)Nc1cc(-c2cccc(F)c2)sc1C(=O)N[C@H]1CCCNC1 [AZD7762] (partner 0.2 µM)
How it was run: as §1

Pemetrexed + Foretinib = compound: Nc1nc2[nH]cc(CCc3ccc(C(=O)N[C@@H](CCC(=O)O)C(=O)O)cc3)c2c(=O)[nH]1 [Pemetrexed] + COc1cc2c(Oc3ccc(NC(=O)C4(C(=O)Nc5ccc(F)cc5)CC4)cc3F)ccnc2cc1OCCCN1CCOCC1 [Foretinib] (partner 0.25 µM)
How it was run: as §1

Pemetrexed + Dasatinib = compound: Nc1nc2[nH]cc(CCc3ccc(C(=O)N[C@@H](CCC(=O)O)C(=O)O)cc3)c2c(=O)[nH]1 [Pemetrexed] + Cc1nc(Nc2ncc(C(=O)Nc3c(C)cccc3Cl)s2)cc(N2CCN(CCO)CC2)n1 [Dasatinib] (partner 0.075 µM)
How it was run: as §1

Cell Line	relative viability (Idelalisib + Lapatinib; first compound 0.04 µM)	relative viability (Idelalisib + Lapatinib; first compound 0.1265 µM)	relative viability (Idelalisib + Lapatinib; first compound 0.4 µM)	relative viability (Idelalisib + Lapatinib; first compound 1.265 µM)	relative viability (Idelalisib + Lapatinib; first compound 4 µM)	relative viability (Idelalisib + AZD7762; first compound 0.04 µM)	relative viability (Idelalisib + AZD7762; first compound 0.1265 µM)	relative viability (Idelalisib + AZD7762; first compound 0.4 µM)	relative viability (Idelalisib + AZD7762; first compound 1.265 µM)	relative viability (Idelalisib + AZD7762; first compound 4 µM)	relative viability (Pemetrexed + Foretinib; first compound 0.002 µM)	relative viability (Pemetrexed + Foretinib; first compound 0.006325 µM)	relative viability (Pemetrexed + Foretinib; first compound 0.02 µM)	relative viability (Pemetrexed + Foretinib; first compound 0.06325 µM)	relative viability (Pemetrexed + Foretinib; first compound 0.2 µM)	relative viability (Pemetrexed + Dasatinib; first compound 0.002 µM)	relative viability (Pemetrexed + Dasatinib; first compound 0.006325 µM)	relative viability (Pemetrexed + Dasatinib; first compound 0.02 µM)	relative viability (Pemetrexed + Dasatinib; first compound 0.06325 µM)	relative viability (Pemetrexed + Dasatinib; first compound 0.2 µM)
NCI-H1395	1.01	0.948	0.993	0.933	0.758	0.415	0.45	0.417	0.371	0.422	0.912	0.965	1.05	0.962	0.937	0.441	0.471	0.481	0.369	0.401
NCI-H1355	1.06	1.1	0.751	0.972	0.888	0.817	0.786	0.625	0.523	0.703	0.864	0.956	1.05	1.01	0.948	0.612	0.692	0.703	0.748	0.752
NCI-H1650	0.888	0.806	0.762	0.775	0.561						0.985	0.988	1.17	0.888	0.402	0.42	0.32	0.326	0.235	0.23
IA-LM	0.641	0.733	0.958	1.24	0.816						1.05	1.1	1.05	1.14	0.829					
NCI-H1666	0.549	0.641	0.419	0.505	0.456	0.821	0.808	0.878	0.763	0.851	0.942	0.996	0.929	0.953	0.832	0.778	0.857	0.818	0.754	0.585
HCC-78	0.709	0.81	0.577	0.916	0.754	0.509	0.649	0.555	0.609	0.547	0.447	0.541	0.54	0.319	0.298	0.305	0.453	0.363	0.241	0.246
H3255	0.297	0.283	0.258	0.233	0.203	0.956	0.859	0.911	0.909	0.802	0.608	0.924	1.07	0.943	0.741	0.236	0.403	0.429	0.362	0.29
NCI-H23	1.04	1.06	0.872	1.08	0.893	0.265	0.218	0.247	0.195	0.235	1.03	0.943	1.22	0.618	0.989	0.783	0.762	0.933	0.74	0.781
NCI-H1944	0.969	0.857	0.637	0.826	0.668	0.554	0.501	0.457	0.2	0.61		0.83	0.922	0.831	0.837		0.201	0.195	0.212	0.217

From the supplement of paper PMC10307832
